In patent US9555014B2, “Therapeutic regimens” (Radius Health, Inc., priority 2010, dated 2017):

Assays:
[1] = system: mammary carcinoma cells (MCF-7); experiment: Estrogen-dependent proliferation of MCF-7 cells (preclinical data); type: cell-based
Text: The results of a phase 2a clinical study assessing the effects of the selective estrogen receptor modulator (SERM) (R)-6-(2-(ethyl(4-(2-(ethylamino)ethyl)benzyl)amino)-4-methoxyphenyl)-5,6,7,8-tetrahydronaphthalen-2-ol on women suffering from hot flushes are reported herein.

[2] = system: postmenopausal women with frequent, moderate to severe vasomotor symptoms (hot flashes); experiment: Phase 2a study: hot flash frequency, severity and composite score; type: in vivo, human (postmenopausal women); details: 10 mg
Text: A phase 2a study was undertaken to assess the effect of (R)-6-(2-(ethyl(4-(2-(ethylamino)ethyl)benzyl)amino)-4-methoxyphenyl)-5,6,7,8-tetrahydronaphthalen-2-ol dihydrochloride (referred to as “drug” in tables below) to alleviate hot flashes in postmenopausal women. The study design and objectives are detailed below.
This is a randomized, placebo-controlled, double-blind, parallel-group, Phase 2, multi-center, dose-finding study to evaluate the effects of (R)-6-(2-(ethyl(4-(2-(ethylamino)ethyl)benzyl)amino)-4-methoxyphenyl)-5,6,7,8-tetrahydronaphthalen-2-ol dihydrochloride in the treatment of vasomotor symptoms in postmenopausal women.
A total of 100 eligible patients will be randomized to receive one of 5 blinded treatment regimens. (R)-6-(2-(ethyl(4-(2-(ethylamino)ethyl)benzyl)amino)-4-methoxyphenyl)-5,6,7,8-tetrahydronaphthalen-2-ol dihydrochloride at doses 0, 10, 25, 50 or 100 mg will be dosed for 28-days.
Patients will document in real time hot flash frequency and severity according to a predetermined scale, in the provided electronic or paper Study Diary. Study Diary entries of hot flash frequency and severity and associated symptoms will be reviewed at each study visit. Serum markers of estrogen effect will be measured at specific study visits while on treatment.
The efficacy endpoints assessed are: • Change in frequency of hot flashes over time • Change in severity of hot flashes over time; • Change in composite score of hot flashes over time (frequency×severity)
(R)-6-(2-(ethyl(4-(2-(ethylamino)ethyl)benzyl)amino)-4-methoxyphenyl)-5,6,7,8-tetrahydronaphthalen-2-ol dihydrochloride was provided by sponsor in capsule form for oral administration. All doses (0, 10, 25, 50 and 100 mg) were provided as identical presentations. Each patient was provided with 2 containers of 28-capsules each at the start of treatment and took one capsule from each container every day for 28-days. Placebo contained the same excipients as active medication, but without (R)-6-(2-(ethyl(4-(2-(ethylamino)ethyl)benzyl)amino)-4-methoxyphenyl)-5,6,7,8-tetrahydronaphthalen-2-ol dihydrochloride. The patients were instructed to take the capsules orally in the fasted state (morning).
Changes in the efficacy endpoints of frequency, severity, and composite score of hot flashes over time; associated hot flash symptoms (palpitations, insomnia, joint aches, and headaches), PD markers of estrogen effect (FSH, LH, and lipid profile), drug levels, and MRS were to be summarized using descriptive statistics. Frequency, severity, and composite score of hot flashes over time were to be analyzed using repeated measures analysis of variance (ANOVA) with factors for treatment (treatment groups), time (study day) and their interaction. A linear trend test for treatment groups (placebo, and 10, 25, 50, 100 mg doses of drug) and for study day as well as any potential interaction between the two was to be included as part of the analyses by including both dose and time as continuous variables in the ANOVA model. Pair-wise comparisons of change from baseline were to be tested between the placebo group and each drug dose group for each timepoint; the mean difference together with a 95% confidence interval of the difference was to be presented for placebo compared with each active treatment group. Nominal p-values at Week 4 were to be presented. In addition, graphical presentations of mean (±standard error of the mean) and percent group responses over time together with repeated measures ANOVA to assess potential trend in responses over time in each dose group were to be presented. For the associated vasomotor symptoms (palpitations, insomnia, joint aches, and headaches collected in the patient diaries), patient and event frequencies were to be summarized by treatment week and treatment group.
Hot flashes were also scored according to their severity with a mild hot flash scored a “1”, a moderate hot flash scored a “2” and a severe hot flash scored a “3”. […]

CCNCCc1ccc(CN(CC)c2cc(OC)ccc2[C@@H]2CCc3cc(O)ccc3C2)cc1 [compound of formula I, (R)-6-(2-(ethyl(4-(2-(ethylamino)ethyl)-benzyl)amino)-4-methoxyphenyl)-5,6,7,8-tetrahydronaphthalen-2-ol]
antagonism of estradiol stimulation on MCF-7 cells [1]: potent antagonist of estradiol stimulation
stimulation of estrogen-dependent proliferation of MCF-7 cells (agonism) ([1]; compared with prototypical estrogen agonists (e.g. estradiol)): does not stimulate estrogen-dependent proliferation
hot flush frequency reduction ([2]; cohort with 2 hour postdose plasma concentration 0.43 ng/mL to 0.53 ng/mL): −75%
hot flush frequency reduction ([2]; higher concentration cohort, 2 hour postdose plasma concentration 0.66 ng/mL to 1.34 ng/mL): −77%
